Test [1] concerns E. coli O157:H7. Kind of test: E. coli O157:H7 inactivation by free chlorine in the micro-fluidic mixer (MPN enumeration). Type of test: cell-based, Escherichia coli O157:H7 (RM4406, ATCC 700728).
In test [2] the test system is E. coli. The test is described as follows: Decimal reduction time (D-value) calculated from the Watson and Hom inactivation models. More on the design: species or system Escherichia coli O157:H7. The source says:
Kinetic modeling was also applied to simplify the complicated disinfection phenomena of produce wash system. Three models that are commonly used for studying bacterial disinfection kinetics with chemical-based disinfectant, including the Chick-Watson Model, the Hom Model, and the Selleck Model.
Watson developed an empirical logarithmic equation to relate the inactivation constant (k) to disinfectant concentration (C) and reaction time (t):
The Hom model is a generalized empirical equation of the Chick-Watson model considering chlorine disinfection as a pseudo first-order reaction:
The D-value here was calculated based on the empirical models developed in this study, namely the Watson model (equation 3) and the Hom model (equation 5). […] By increasing chlorine concentration to […], the D-value reduces to […] respectively.

Several values for one entry are separate records, joined by “and”; a condition that tells them apart may be missing. Equal entries are not always repeated.

The values below come from US20160068883A1, “MICRO-FLUIDIC MIXER AND METHOD OF DETERMINING PATHOGEN INACTIVATION VIA ANTIMICROBIAL SOLUTIONS” (The United States of America, as represented by the …, priority 2014, published 2016).

With `OCl` [free chlorine, hypochlorous acid], the “contact time to achieve a 5-log reduction” value is “more than 1.2 second” in test [1] (1 mg/L free chlorine); 0.50 second in test [1] (5 mg/L free chlorine); 0.25 second and 0.2 second in test [1] (10 mg/L free chlorine); 0.2 second in test [1] (10 mg/L free chlorine, listed as chlorine); 0.25 second in test [1] (20 mg/L free chlorine). In addition, the “log reduction of E. coli O157:H7” value stood at 0.14 log in test [1] (1.0 mg/L free chlorine, 0.25 second contact, suspension 1×10^8 CFU/mL); 4.97 log in test [1] (1.0 mg/L free chlorine, 1.00 second contact, suspension 1×10^8 CFU/mL); 5.77 log in test [1] (10.0 mg/L free chlorine, 0.25 second contact). Moreover, the “bacterial survival in collected effluent (total pathogen inactivation control)” value in test [1] (chlorine 50 mg/L, pathogen solution 10^8 MPN/mL, without dechlorinating solution) was “no bacterial survival detected”. The “D-value (decimal reduction time, 90% / one log reduction)” value in test [2] (1 mg/L free chlorine) is 28.06 milliseconds; in test [2] (chlorine 5 (so in the source)) it was 5.72 milliseconds; in test [2] (chlorine 10 (so in the source)) it was 2.87 milliseconds; in test [2] (chlorine 20 (so in the source)), 1.43 milliseconds.
